Test results: BindingDB's records for doi:10.1016/j.bmcl.2009.04.079 (China Pharmaceutical University, 2009)
Where a name gives a salt, the structure may show the parent alone.

Test: Inhibition of NHE1-mediated rat platelet swelling

Compound | IC50 [nM]
COc1ccc(CN2CCN(Cc3ccc(C(=O)NC(=N)N)cc3[N+](=O)[O-])CC2)c(OC)c1OC | 3.6
COc1ccc(CN2CCN(Cc3ccc(C(=O)NC(=N)N)cc3Br)CC2)c(OC)c1OC [3-bromo-N-(diaminomethylene)-4-((4-(2,3,4-trimethoxybenzyl)piperazin-1-yl)methyl)benzamide hydrochloride] | 248
COc1ccc(CN2CCN(Cc3ccccc3C(=O)NC(=N)N)CC2)c(OC)c1OC [N-(diaminomethylene)-2-((4-(2,3,4-trimethoxybenzyl)piperazin-1-yl)methyl)benzamide hydrochloride] | 11.1
COc1ccc(CN2CCN(Cc3cccc(C(=O)NC(=N)N)c3)CC2)c(OC)c1OC [N-(diaminomethylene)-3-((4-(2,3,4-trimethoxybenzyl)piperazin-1-yl)methyl)benzamide hydrochloride] | 36.5
CNS(=O)(=O)c1cc(C(=O)NC(=N)N)ccc1CN1CCN(Cc2ccc(OC)c(OC)c2OC)CC1 [N-(diaminomethylene)-3-(N-methylsulfamoyl)-4-((4-(2,3,4-trimethoxybenzyl)piperazin-1-yl)methyl)benzamide hydrochloride] | 15
CCCNS(=O)(=O)c1cc(C(=O)NC(=N)N)ccc1CN1CCN(Cc2ccc(OC)c(OC)c2OC)CC1 [N-(diaminomethylene)-3-(N-propylsulfamoyl)-4-((4-(2,3,4-trimethoxybenzyl)piperazin-1-yl)methyl)benzamide hydrochloride] | 1150
COc1ccc(CN2CCN(C(C)c3ccc(C(=O)NC(=N)N)cc3[N+](=O)[O-])CC2)c(OC)c1OC (stereo unspecified) [N-(diaminomethylene)-3-nitro-4-(1-(4-(2,3,4-trimethoxybenzyl)piperazin-1-yl)ethyl)benzamide hydrochloride] | 18.7
COc1ccc(CN2CCN(Cc3ccc(C(=O)NC(=N)N)cc3S(N)(=O)=O)CC2)c(OC)c1OC [N-(diaminomethylene)-3-sulfamoyl-4-((4-(2,3,4-trimethoxybenzyl)piperazin-1-yl)methyl)benzamide hydrochloride] | 11.5
COc1ccc(CN2CCN(C(C)c3ccc(C(=O)NC(=N)N)cc3)CC2)c(OC)c1OC (stereo unspecified) [N-(diaminomethylene)-4-(1-(4-(2,3,4-trimethoxybenzyl)piperazin-1-yl)ethyl)benzamide hydrochloride] | 40.5
COc1ccc(CN2CCN(Cc3ccc(C(=O)NC(=N)N)cc3)CC2)c(OC)c1OC [N-(diaminomethylene)-4-((4-(2,3,4-trimethoxybenzyl)piperazin-1-yl)methyl)benzamide hydrochloride] | 36.4
COc1ccc(CN2CCN(Cc3cc(C(=O)NC(=N)N)ccc3[N+](=O)[O-])CC2)c(OC)c1OC [N-(diaminomethylene)-4-nitro-3-((4-(2,3,4-trimethoxybenzyl)piperazin-1-yl)methyl)benzamide hydrochloride] | 14.2
